Data on six compounds can be found in patent US20130296316A1, “Antiparasitic Agents Based On mTOR Inhibitors” (priority 2010, published 2013).

Test [1] concerns L. major promastigotes. The experiment in a line: Potency assessment against Leishmania major promastigotes (growth, cell counting). It counts as cell-based. The conditions noted are these: for EC50: Leishmania major, promastigotes, average of three replicates, read-out: Effective concentration (EC50) L. major; for activity against L. major promastigotes in words: highest concentration tested.

The target in test [2] is mTOR (Homo sapiens, UniProt P42345). The conditions noted are these: cited from earlier work; for mTOR IC50 in words: mammalian cells / literature.
Test [3] addresses PI3K p110α (Homo sapiens, UniProt P42336). The following applies: human enzyme, Table 1; cited from earlier work.
The test system of test [4] is T. brucei brucei Lister 427. The experiment in a line: Potency assessment against T. brucei brucei Lister 427 bloodstream form (AlamarBlue, 72 h). Type of test: cell-based, Trypanosoma brucei brucei. The conditions noted are these: Trypanosoma brucei.
Test [5] has as its system human cells. The following applies: literature, Table 1; read-out: Inhibition of Cell Growth EC50; cited from earlier work.
The test system of test [6] is T. cruzi trypomastigotes. The experiment in a line: T. cruzi intracellular replication in NIH/3T3 host cells (β-galactosidase, CPRG). Type of test: cell-based, Trypanosoma cruzi. The conditions noted are these: Trypanosoma cruzi, NIH3T3, 96 h; trypomastigotes with 3T3 host cells, four days, three replicates within ±10.2%; read-out: Effective concentration (EC50) T. cruzi.

Test [7] concerns L. donovani axenic amastigotes. The experiment in a line: Potency assessment against Leishmania donovani axenic amastigotes (growth, cell counting). The conditions noted are these: for EC50: Leishmania donovani, axenic amastigotes, average of three replicates, read-out: Effective concentration (EC50) L. donovani axenic amastigotes; for activity against L. donovani axenic amastigotes in words: highest concentration tested. Type of test: cell-based.

Test [8] relates to T. brucei brucei Lister 427 bloodstream cells. The experiment in a line: Morphological and cell cycle alterations in T. brucei (flow cytometry). Type of test: cell-based, Trypanosoma brucei brucei. The conditions noted are these: 16 h, WYE-354 2 μM; for effect on cellular DNA content / cell cycle, T. b. brucei: PI-103 1 μM, Pp242 2 μM, NVP-BEZ235 100 nM. The method, then: Flow cytometry was used to assess cell size and DNA content, to reveal a G1 arrest and inhibition of protein synthesis or G2 arrest and multinucleated cells. […]. After permeabilization with […], saponin (0.5 mg/mL final concentration), the culture was RNAse treated for 30 minutes (10 μg/mL final concentration) and stained with 20 μg/mL propidium iodide immediately before its acquisition in a FACscan cytometer. Cells incubated with equivalent concentration of drug solvent (DMSO) were included in each experiment as control population.
For orientation: Flow cytometry measures light scatter and fluorescence of single cells or particles in a stream.

The test system of test [9] is Leishmania. The experiment in a line: Leishmania growth inhibition summarised across both species and stages. Type of test: cell-based. The conditions noted are these: range over L. major and L. donovani, promastigotes and amastigotes.
In test [10] the test system is T. b. rhodesiense. Description: Potency assessment against T. b. rhodesiense EATRO3 bloodstream form (AlamarBlue, 72 h). It counts as cell-based, Trypanosoma brucei rhodesiense. The conditions noted are these: Trypanosoma brucei, RHODESIENSE
(Alamar Blue is a resazurin reagent that responds to reducing activity.)

The test system of test [11] is L. donovani promastigotes. Description: Potency assessment against Leishmania donovani promastigotes (growth, cell counting). Type of test: cell-based. The conditions noted are these: Leishmania donovani; promastigotes, average of three replicates; read-out: Effective concentration (EC50) L. donovani promastigotes.
In test [12] the test system is L. major promastigotes. The experiment in a line: Cell size and DNA content analysis in Leishmania (flow cytometry). Type of test: cell-based, Leishmania major. The method, then:
L. major log phase promastigotes were inoculated at a concentration of 10^6 cells/ml into media with compounds as indicated, and incubated overnight with varying drug concentrations to assess cell size and DNA content. For cell size, forward scatter of live promastigotes was measured by a FACS flow cytometer (Becton Dickinson), utilizing dye exclusion with 5 μg/ml propidium iodide (PI) to gate for live cells. DNA content was determined by flow cytometry using fixed and permeabilized L. major stained with PI as previously described, but reducing the incubation time with PI and RNase A from 1 hour to 30 minutes. Histogram analysis was performed using CellQuest 3.1 software (BD Bioscience).

For test [13], the system named is T. brucei gambiense, ELIANE strain. The experiment in a line: Potency assessment against T. b. gambiense ELIANE bloodstream form. It counts as cell-based, Trypanosoma brucei gambiense. The conditions noted are these: Trypanosoma brucei, GAMBIENSE; Table 3; read-out: EC50 T. b. gambiense ELIANE.
Test [14] has as its system T. b. brucei Lister 927. Description: Potency assessment against T. b. brucei Lister 927. Type of test: cell-based, Trypanosoma brucei brucei. The following applies: Trypanosoma brucei; Table 3. The method, then: Assays were performed using the strain of T. brucei brucei Lister 427 adapted to the laboratory, and the human-infective strain T. b. rhodesiense (EATRO3 ETat1.2 TREU164 [37]). Both strains were grown and tested as bloodstream forms. To establish the EC50, cultures of Trypanosoma brucei and T. b. rhodesiense were treated with two-fold increasing concentrations of compounds (with similar DMSO increasing concentration as control). Cell populations were measured at 72 hours with an Infinite F200 microplate reader (Tecan Austria GmbH, Austria); the determination of cell viability was carried out by the established colorimetric technique AlamarBlue® with modifications, a 96-well plate format spectrophotometric assay which measures the ability of living cells to reduce resazurin [38,39]. Data obtained with T. b. brucei Lister 427 were confirmed by manual counting in a Neubauer chamber for a direct microscopic examination to rule out multinucleated phenotypes that could mask the colorimetric assays, as well as the subtraction of solvent background to dismiss a potential solvent-derived fluorescence. Pentamidine was used as drug control for potency comparison, and T. b. brucei Lister 927 strain was included in our experiments to evaluate the adaptation to medium for the different strains as a variable condition.

Where [15] appears, read: bloodstream form, average of three replicates, read-out: Effective concentration (EC50) T. b. brucei.
[16] abbreviates: bloodstream form, average of three replicates, read-out: Effective concentration (EC50) T. b. rhodesiense.
Where [17] appears, read: overnight, PI-103 4 μM, WYE-354 25 μM, NVP-BEZ235 0.5 μM (EC60-EC90).

Read-outs that look alike come from different tables or passages of the source.

Chain of PI3K p110α (P42336 whole entry): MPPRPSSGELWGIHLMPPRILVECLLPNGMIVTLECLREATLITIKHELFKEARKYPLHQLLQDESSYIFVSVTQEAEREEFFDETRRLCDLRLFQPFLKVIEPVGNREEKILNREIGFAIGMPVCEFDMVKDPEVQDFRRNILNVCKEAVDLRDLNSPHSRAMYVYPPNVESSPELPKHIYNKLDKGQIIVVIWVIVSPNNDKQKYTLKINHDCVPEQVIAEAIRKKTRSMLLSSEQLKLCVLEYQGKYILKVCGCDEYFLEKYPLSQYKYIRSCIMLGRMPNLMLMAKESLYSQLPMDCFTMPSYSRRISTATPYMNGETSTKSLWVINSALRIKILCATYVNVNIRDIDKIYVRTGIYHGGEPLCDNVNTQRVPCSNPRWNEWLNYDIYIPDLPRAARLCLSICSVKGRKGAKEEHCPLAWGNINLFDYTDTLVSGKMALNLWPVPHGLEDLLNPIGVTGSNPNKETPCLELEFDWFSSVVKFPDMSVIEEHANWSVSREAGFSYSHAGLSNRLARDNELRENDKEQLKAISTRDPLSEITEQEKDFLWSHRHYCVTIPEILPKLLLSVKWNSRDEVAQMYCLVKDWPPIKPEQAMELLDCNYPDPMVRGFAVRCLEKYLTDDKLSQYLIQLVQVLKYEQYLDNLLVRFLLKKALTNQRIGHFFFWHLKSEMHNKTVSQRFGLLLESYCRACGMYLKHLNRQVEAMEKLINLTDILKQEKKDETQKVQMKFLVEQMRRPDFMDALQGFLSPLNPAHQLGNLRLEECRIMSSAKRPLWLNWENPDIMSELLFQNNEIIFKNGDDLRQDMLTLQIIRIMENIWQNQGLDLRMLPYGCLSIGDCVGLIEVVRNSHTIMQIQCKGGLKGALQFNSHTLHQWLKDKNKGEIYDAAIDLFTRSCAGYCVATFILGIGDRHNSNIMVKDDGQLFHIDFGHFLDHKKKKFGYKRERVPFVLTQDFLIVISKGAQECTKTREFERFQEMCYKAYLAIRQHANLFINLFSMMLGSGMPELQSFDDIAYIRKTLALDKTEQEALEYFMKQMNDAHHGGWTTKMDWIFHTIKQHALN
Chain of PI3K p110α (P27986 whole entry partner): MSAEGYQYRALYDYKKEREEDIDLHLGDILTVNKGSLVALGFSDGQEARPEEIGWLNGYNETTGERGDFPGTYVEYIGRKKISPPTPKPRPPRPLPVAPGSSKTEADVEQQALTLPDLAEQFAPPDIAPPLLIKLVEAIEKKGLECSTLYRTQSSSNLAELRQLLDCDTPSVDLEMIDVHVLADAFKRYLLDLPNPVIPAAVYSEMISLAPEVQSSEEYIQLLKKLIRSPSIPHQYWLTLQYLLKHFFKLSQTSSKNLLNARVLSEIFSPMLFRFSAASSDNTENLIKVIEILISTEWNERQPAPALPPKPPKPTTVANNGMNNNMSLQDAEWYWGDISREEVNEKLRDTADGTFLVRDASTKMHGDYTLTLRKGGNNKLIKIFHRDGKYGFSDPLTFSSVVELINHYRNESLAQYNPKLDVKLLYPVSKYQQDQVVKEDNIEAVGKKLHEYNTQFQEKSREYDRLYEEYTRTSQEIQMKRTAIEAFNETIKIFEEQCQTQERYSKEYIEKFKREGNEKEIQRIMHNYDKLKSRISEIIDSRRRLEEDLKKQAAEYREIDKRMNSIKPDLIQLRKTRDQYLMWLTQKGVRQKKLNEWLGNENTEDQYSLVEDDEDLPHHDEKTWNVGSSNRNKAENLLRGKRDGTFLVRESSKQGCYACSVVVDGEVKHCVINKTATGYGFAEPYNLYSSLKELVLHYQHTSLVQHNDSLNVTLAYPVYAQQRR

As usually defined, the IC50 is the concentration that gives 50% inhibition. Take `O=c1cc(N2CCOCC2)nc2c3ccccc3ccn12` [Compound 401, 2-(morpholin-1-yl)pyrimido[2,1-alpha]isoquinolin-4-one]: the EC50 in [1] was over 25000 nM; in test [4] (setting [15]) it was over 10000 nM; in test [5] it was 1000 nM; in test [6] it was over 10000 nM; in [7], over 5000 nM. In addition, in test [1], the “activity against L. major promastigotes in words” value is “inactive”. In addition, in test [2], the “mTOR IC50 in words” value is recorded as “low micromolar concentrations”. For the same compound, in test [3], the IC50 is over 100000 nM. Moreover, in [7], the “activity against L. donovani axenic amastigotes in words” value was “inactive”.

For the compound `COc1ccc(-c2ccc3c(N4CCOCC4)nc(N4C[C@@H](C)O[C@@H](C)C4)nc3n2)cc1CO` [Ku-0063794], the EC50 was over 25000 nM in test [1]; 890 ± 140 nM in [4] (setting [15]); 30 nM in test [5]; over 10000 nM in test [6]; over 5000 nM in [7]. Besides, the “activity against L. major promastigotes in words” value in test [1] is “inactive”. Further, the “activity against L. donovani axenic amastigotes in words” value in [7] is “inactive”.

Consider `Oc1cccc(-c2nc(N3CCOCC3)c3oc4ncccc4c3n2)c1` [PI-103], for which the “effect on cellular DNA content / cell cycle, T. b. brucei” value in test [8] is listed as “G1 arrest”. Further, the EC50 is 320 to 1050 nM in test [9] (read-out: inhibition of Leishmania across both species and stages); 320 ± 160 nM in test [1]; 105 ± 10 nM in test [10] (setting [16]); 100 nM in [10] (read-out: activity against T. b. rhodesiense cultures); 1050 ± 280 nM in test [11]; 214 ± 36 nM in [4] (setting [15]). Moreover, the EC50 in [4] (read-out: activity against T. b. brucei cultures) was 200 nM; in test [5] it was 500 nM; in [6], over 25000 nM; in [7], 620 ± 410 nM. Further, in test [12] (setting [17]), the “effect on cell size and DNA content, L. major promastigotes” value (from here on “effect on cell size and DNA content”) is “G1 arrest and a decrease in cell size”.

With `N=C(N)c1ccc(OCCCCCOc2ccc(C(=N)N)cc2)cc1` [Pentamidine], the EC50 stood at 3.7 ± 0.4 nM in [10] (Table 3, read-out: EC50 T. b. rhodesiense EATRO3); 4.2 ± 0.2 nM in test [4] (Table 3, read-out: EC50 T. b. brucei 427); 2.5 ± 0.5 nM in test [13]; 30.3 ± 10.4 nM in [14].

For `CC(C)n1nc(-c2cc3cc(O)ccc3[nH]2)c2c(N)ncnc21` [Pp242], the “effect on cellular DNA content / cell cycle, T. b. brucei” value in test [8] was “G1 arrest”. Moreover, the “effect on cell size and DNA content” value was “G2 arrest and increase in cell size” in [12] (higher concentrations of Pp242); “decrease in cell size and a G1 arrest” in test [12] (lower concentrations of Pp242).

As for `COC(=O)Nc1ccc(-c2nc(N3CCOCC3)c3cnn(C4CCN(C(=O)OC)CC4)c3n2)cc1` [WYE-354], the “effect on cellular DNA content / cell cycle, T. b. brucei” value in test [8] is “no significant variations in cell cycle”. In test [8], the “effect on cell size, T. b. brucei” value is “small but noticeable reduction in cell size”. In addition, the EC50 in test [9] (read-out: activity against Leishmania across both species and stages) was 4000 to 6000 nM; in [1], 4100 ± 300 nM; in [10] (setting [16]) it was 780 ± 80 nM; in test [11], 5950 ± 840 nM; in [4] (setting [15]) it was 580 ± 260 nM; in test [5], 30 nM. Also, the figures for the EC50 in test [6] and in test [7] were over 10000 nM and 6100 ± 1730 nM, respectively. In addition, the IC50 is 4 nM in test [2] (human enzyme, Table 1) and 1000 nM in test [3]. For the same compound, the “mTOR IC50 in words” value in test [2] is “low nanomolar”. The “effect on cell size and DNA content” value in [12] (setting [17]) is “G1 arrest and a decrease in cell size”.
